# Measured values published in patent US9067922B2, “Chemical compounds” (Pfizer Limited, priority 2013, dated 2015).
# Like-named read-outs stand apart in the source and are kept apart here.
# Target: URAT-1 transporter (Homo sapiens (Human), UniProt Q96S37)
# Experiment: URAT-1 inhibitor activity: [14C]-uric acid uptake in CHO-URAT1(L)GFP#8 (CHO#8) cells, scintillation proximity
# Assay type: cell-based
# Procedure, shortened: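 CHO cells stably expressing human URAT1 long isoform–eGFP fusion, pre-incubated 1 h in chloride-containing buffer pH 7.4, then given 30 nM [14C]-uric acid with compound (0–10 μM, 0.25% DMSO) in chloride-free gluconate buffer pH 7.4. Uptake measured by scintillation proximity on Cytostar plates.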
# [1] = inhibition of [14C]-uric acid (30 nM) uptake into CHO#8 cells, compound 0 to 10 μM, 4 parameter logistic fit
# Chain of URAT-1 transporter (Q96S37 other isoform, or with tags, fused parts or gaps): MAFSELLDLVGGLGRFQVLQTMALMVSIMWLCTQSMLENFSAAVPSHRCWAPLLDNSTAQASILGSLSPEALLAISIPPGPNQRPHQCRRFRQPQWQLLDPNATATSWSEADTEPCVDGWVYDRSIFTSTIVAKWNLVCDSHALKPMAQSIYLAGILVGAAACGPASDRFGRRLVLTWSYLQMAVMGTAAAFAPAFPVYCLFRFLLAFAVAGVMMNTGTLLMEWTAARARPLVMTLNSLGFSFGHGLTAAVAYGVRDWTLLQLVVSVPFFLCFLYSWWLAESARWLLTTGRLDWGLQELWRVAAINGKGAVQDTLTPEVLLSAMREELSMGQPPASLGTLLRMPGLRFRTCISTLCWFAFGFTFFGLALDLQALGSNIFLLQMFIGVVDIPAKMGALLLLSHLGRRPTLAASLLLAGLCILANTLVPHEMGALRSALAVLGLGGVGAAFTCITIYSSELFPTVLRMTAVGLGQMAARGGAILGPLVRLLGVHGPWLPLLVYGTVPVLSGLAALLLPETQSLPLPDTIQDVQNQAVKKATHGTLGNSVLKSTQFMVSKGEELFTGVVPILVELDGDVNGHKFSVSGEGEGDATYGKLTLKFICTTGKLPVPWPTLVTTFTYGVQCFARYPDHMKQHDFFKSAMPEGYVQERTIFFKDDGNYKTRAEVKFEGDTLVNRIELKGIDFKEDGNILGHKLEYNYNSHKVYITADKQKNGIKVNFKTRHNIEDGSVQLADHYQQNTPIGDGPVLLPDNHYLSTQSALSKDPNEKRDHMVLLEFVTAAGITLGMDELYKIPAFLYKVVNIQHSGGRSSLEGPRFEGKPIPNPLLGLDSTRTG
Structure (SMILES),IC50 [1] [nM],IC50 [nM]
"N#Cc1cc(S(=O)(=O)Nc2ccc(F)cn2)ccc1Oc1cc(Cl)c(C#N)c(Cl)c1 [Example 241, 3-cyano-4-(3,5-dichloro-4-cyanophenoxy)-N-(5-fluoropyridin-2-yl)benzenesulfonamide]",3,–
"N#Cc1cc(S(=O)(=O)Nc2ccc(F)cn2)ccc1Oc1ccc(CO)c(Cl)c1 [Example 247, 4-[3-chloro-4-(hydroxymethyl)phenoxy]-3-cyano-N-(5-fluoropyridin-2-yl)benzenesulfonamide]",1,–
"N#Cc1ccc(Oc2c(F)cc(S(=O)(=O)Nc3ccc(F)cn3)cc2C#N)cc1Cl [Example 248, 4-(3-chloro-4-cyanophenoxy)-3-cyano-5-fluoro-N-(5-fluoropyridin-2-yl)benzenesulfonamide]",324,–
[2H]c1c(Oc2ccc(S(=O)(=O)Nc3ccc(F)cn3)c(F)c2)c([2H])c(C([2H])([2H])[2H])c(C#N)c1C([2H])([2H])[2H] [Example 249],–,21
N#Cc1cc(Oc2ccc(S(=O)(=O)Nc3ncccn3)cc2C#N)ccc1F [compound 209],> 10000,–
O=S(=O)(Nc1ncccn1)c1cc(Cl)c(Oc2ccc(F)c(F)c2)cc1F [compound 210],> 10000,–
N#Cc1cc(S(=O)(=O)Nc2ncccn2)ccc1Oc1ccc(F)c(F)c1 [compound 211],> 3000,–
O=S(=O)(Nc1ncc(F)cn1)c1cc(Cl)c(Oc2ccc(F)c(F)c2)cc1F [compound 212],> 10000,–
N#Cc1cc(Oc2cc(F)c(S(=O)(=O)Nc3ncc(F)cn3)cc2Cl)ccc1F [compound 214],> 1150,–
N#Cc1ccc(Oc2cc(F)c(S(=O)(=O)Nc3ccc(F)cn3)cc2Cl)cc1F [compound 215],> 10000,–
N#Cc1ccc(Oc2cc(F)c(S(=O)(=O)Nc3ncc(F)cn3)cc2Cl)cc1Cl [compound 226],1780,–
"Cc1cc(Oc2ccc(S(=O)(=O)Nc3ccc(F)cn3)cc2C#N)cc(C)c1C#N [compound 235, 3-cyano-4-({4-cyano-3,5-bis[methyl-D3]-2,3-D2-phenyl}oxy)-N-(5-fluoropyridin-2-yl)benzenesulfonamide]",13,–

# Other lines, results leading:
IC50 [1] [nM],IC50 [nM],Structure (SMILES)
> 10000,–,N#Cc1ccc(Oc2cc(F)c(S(=O)(=O)Nc3cccnn3)cc2Cl)cc1Cl [compound 227]
244,–,N#Cc1ccc(Oc2ccc(S(=O)(=O)Nc3ccc(F)cn3)cc2Cl)cc1F [compound 228]
126,–,N#Cc1ccnc(NS(=O)(=O)c2ccc(Oc3ccc(F)c(Cl)c3)c(C#N)c2)c1 [compound 229]
62,–,N#Cc1ccc(NS(=O)(=O)c2ccc(Oc3ccc(F)c(Cl)c3)c(C#N)c2)nc1 [compound 230]
53,–,N#Cc1cc(S(=O)(=O)Nc2ccc(F)cn2)ccc1Oc1cnc(OC(F)F)c(Cl)c1 [compound 231]
12,–,"N#Cc1ccc(Oc2ccc(S(=O)(=O)Nc3ccc(Cl)cn3)cc2C#N)cc1Cl [compound 232, 4-(3-chloro-4-cyanophenoxy)-N-(5-chloropyridin-2-yl)-3-cyanobenzenesulfonamide]"
233,–,Cc1ccc(NS(=O)(=O)c2ccc(Oc3ccc(C#N)c(Cl)c3)c(C#N)c2)nc1 [compound 233]
1150,–,CC(C)(O)c1ccc(Oc2ccc(S(=O)(=O)Nc3ccc(F)cn3)cc2C#N)cc1 [compound 234]
8,–,"N#Cc1cc(S(=O)(=O)Nc2ccc(F)cn2)ccc1Oc1cc(F)c(C#N)c(Cl)c1 [compound 237, 4-(3-chloro-4-cyano-5-fluorophenoxy)-3-cyano-N-(5-fluoropyridin-2-yl)benzenesulfonamide]"
88,–,Cc1ncc(Oc2ccc(S(=O)(=O)Nc3ccc(F)cn3)cc2C#N)cc1Cl [compound 238]
2,–,"O=S(=O)(Nc1ccc(F)cn1)c1ccc(Oc2cnc(CO)c(Cl)c2)cc1F [compound 239, 4-{[5-chloro-6-(hydroxymethyl)pyridin-3-yl]oxy}-2-fluoro-N-(5-fluoropyridin-2-yl)benzenesulfonamide]"
106,–,N#Cc1cc(S(=O)(=O)Nc2ccc(F)cn2)ccc1Oc1ccc(Cl)c(CO)c1 [compound 240]
